The subject of one data set is W(Ghr, ΔB) clones. The data set can be described thus: resistance of yeast clones to ketoconazole. The data set is classed as cell-based, S. cerevisiae. Particulars: three W(Ghr, ΔB) clones, human reductase under GAPDH promoter. How it is done:
The second selection: the resistance of the W(Ghr, ΔB) clones to ketoconazole was evaluated (Patent No. WO94/01564) in order to verify the activity of the human reductase expressed under the control of the GAPDH promoter. Three different clones are resistant to 20 mg of ketoconazole/ml, while the W(hR) strain, in which the human reductase is expressed under the control of the GAL10-CYC1 promoter, is only resistant to from 1 to 5 mg/ml under the same conditions.

For the next data set, the target named is T1, P450 cytochrome 1A1 (Homo sapiens, UniProt P04798).
T1 construct: made in house; host or cells: Saccharomyces cerevisiae W303-derived strains, e.g. W(R, LHb5); microsomal fractions
T1 sequence (P04798 1-512): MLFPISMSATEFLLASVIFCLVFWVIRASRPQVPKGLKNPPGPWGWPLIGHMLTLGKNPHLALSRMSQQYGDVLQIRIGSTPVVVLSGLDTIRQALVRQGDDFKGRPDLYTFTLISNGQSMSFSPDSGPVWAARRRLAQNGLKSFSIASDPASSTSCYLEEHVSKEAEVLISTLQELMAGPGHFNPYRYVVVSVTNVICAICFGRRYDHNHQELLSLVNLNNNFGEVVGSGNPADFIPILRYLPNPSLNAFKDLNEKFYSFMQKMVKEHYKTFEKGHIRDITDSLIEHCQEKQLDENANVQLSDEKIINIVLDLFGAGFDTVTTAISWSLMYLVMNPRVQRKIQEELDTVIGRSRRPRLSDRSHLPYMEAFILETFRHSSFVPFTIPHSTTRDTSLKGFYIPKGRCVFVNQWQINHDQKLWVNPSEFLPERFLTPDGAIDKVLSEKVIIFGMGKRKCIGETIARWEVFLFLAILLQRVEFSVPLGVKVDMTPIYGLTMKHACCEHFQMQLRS
The data set can be described thus: EROD activity test on microsomes (O-deethylation of 7-ethoxyresorufin). As to conditions: microsomes of strain W(R, LHb5), rabbit cytochrome b5 added. The data set is classed as biochemical. Here is the method:
The P450 cytochrome 1A1 catalyses the O-deethylation of 7-ethoxyresorufin. The product of the reaction, i.e. resorufin (7-hydroxyphenoxazine), fluoresces at 586 nm after excitation at 530 nm. The quantity of resorufin formed per unit time corresponds to the rate of resorufin accumulation.
The incubation mixture comprises:
2 μl of a microsomal suspension (between 20 and 50 μg of microsomal protein) in 1 ml of pH 7.4 TE buffer containing 50 μM NADPH and 2.5 μM 7-ethoxyresorufin. In order to determin the effect of rabbit cytochrome b5 on catalytic efficacy, the microsomal fractions are subjected to prior incubation in the cold in the presence of an excess of purified cytochrome.

Regarding `CC(=O)N1CCN(c2ccc(OCC3COC(Cn4ccnc4)(c4ccc(Cl)cc4Cl)O3)cc2)CC1` (centres unmarked) [ketoconazole], the “ketoconazole concentration to which the clones are resistant” value with W(Ghr, ΔB) clones amounted to 20 mg/mL.

B1: rabbit cytochrome b5: purified rabbit cytochrome b5 added in excess to microsomal fractions (protein, UniProt P00169 2-134, looked up)
Cytochrome b5: AAQSDKDVKYYTLEEIKKHNHSKSTWLILHHKVYDLTKFLEEHPGGEEVLREQAGGDATENFEDVGHSTDARELSKTFIIGELHPDDRSKLSKPMETLITTVDSNSSWWTNWVIPAISALIVALMYRLYMADD
Consider B1, for which the turnover with P450 cytochrome 1A1 was 27 pmol of metabolite/pmol of cytochrome P450 per min.

These data come from patent US6579693B1, “Genetically engineered yeast strains” (Aventis Pharma S.A., priority 1995, dated 2003).
